Experimental data reported in US20130172340A1, “SUBSTITUTED 2-(9H-PURIN-9-YL) ACETIC ACID ANALOGUES AS INHIBITORS OF STAT3” (University of Central Flordia Research Foundation,, priority 2010, published 2013).

Tests used:
[1] = test system: NIH3T3; experiment: CyQuant cell viability and proliferation assay, NIH3T3; assay type: cell-based; conditions: Mus musculus, 48 h, CyQuant viability
Experimental: (§1) Briefly, human breast (MDA-MB-231), pancreatic (Panc-1), and prostate (DU145) cancer cells, the v-Src transformed (NIH3T3/v-Src) fibroblasts or their normal counterparts (NIH3T3), and the murine thymic stromal epithelial cells (TE-71) were treated or not treated with 30-500 μM of the representative disclosed compounds, as indicated, for 48 h and assessed for viability using CyQuant cell proliferation kit. Values, mean (SD of 3 independent experiments each in triplicate.
(§2) Cells in culture in 6-well or 96-well plates were treated with or without agents for 24-144 h and subjected to CyQuant cell proliferation assay (Invitrogen Corp/Life Technologies Corp, Carlsbad, Calif.). IC50 values shown below were derived from the plot of viability versus drug concentration.
(§3) As aberrant STAT3 activity promotes cancer cell growth and survival, and tumor angiogenesis and metastasis (Turkson et al., 2004; Yue et al., 2009; Turkson et al., 2004; Turkson et al., 2001; Siddiquee et al., 2007; Siddiquee et al., 2007(b); Song et al., 2005; Turkson et al., 2005), the sensitivity of various cell lines to the purine scaffold treatment was tested. […] (see also Table 2). The data represented by FIG. 4 were the results of experiments performed in triplicate.

[2] = test system: DU145, MDA-MB-231, Panc-1 and NIH3T3/v-Src cells; experiment: CyQuant cell proliferation assay, cells that harbor constitutively active STAT3; assay type: cell-based; conditions: 48 hours, 30-500 μM, DU145, MDA-MB-231, Panc-1, NIH3T3/v-Src
Source text: Values, mean (SD of 3 independent experiments each in triplicate.
IC50 values shown below were derived from the plot of viability versus drug concentration.
(see also Table 2). The data represented by FIG. 4 were the results of experiments performed in triplicate.

[3] = test system: pSrc; experiment: Immunoblotting of constitutive pSrc in NIH3T3/v-Src and MDA-MB-231; assay type: cell-based; conditions: same treatments, all panels of FIG. 2
Experimental: (§4) Positions of proteins in gel are labeled; control lanes (0) are whole-cell lysates from 0.05% DMSO-treated cells. Data are representative of 3-4 independent determinations. Further discussion on the figure is provided in the Experimental section below.
(§5) Immunoprecipitation, and SDS/PAGE and Western blotting analysis were performed as previously described (6, 16). Primary antibodies used were anti-STAT3, pY705STAT3, pY416Src, Src, pErk1/2, Erk1/2, pSTAT1, STAT1, (Cell Signaling), and antiphosphotyrosine, clone 4G10 (Upstate Biotechnology, Lake Placid, N.Y.). Where appropriate, cells were stimulated for 12 min by 9 ng/μl rhEGF (12 μl into 3 ml culture) prior to preparation of whole-cell lysates for immunoprecipitation and/or immunoblotting analysis.

[4] = test system: DU 145; experiment: CyQuant cell viability and proliferation assay, DU 145; assay type: cell-based; conditions: Homo sapiens, 48 h, CyQuant viability
Experimental: as §1, §2, §3

[5] = test system: pErk1/2; experiment: Immunoblotting of constitutive phospho-ErkMAPK in NIH3T3/v-Src and MDA-MB-231; assay type: cell-based; conditions: same treatments, all panels of FIG. 2
Experimental: as §4, §5

[6] = test system: NIH3T3/v-Src; experiment: CyQuant cell viability and proliferation assay, NIH3T3/v-Src; assay type: cell-based; conditions: Mus musculus, 48 h, CyQuant viability
Experimental: as §1, §2, §3

[7] = test system: MDA-MB-231; experiment: CyQuant cell viability and proliferation assay, MDA-MB-231; assay type: cell-based; conditions: Homo sapiens, 48 h, CyQuant viability
Experimental: as §1, §2, §3

[8] = test system: pY705STAT3; experiment: Immunoblotting of constitutive STAT3 phosphorylation in MDA-MB-231; assay type: cell-based, human; conditions: for constitutive STAT3 phosphorylation: MDA-MB-231, 40 or 50 μM, 12, 24, or 48 h
Experimental: as §4, §5

[9] = test system: pY705STAT3; experiment: Immunoblotting of constitutive STAT3 phosphorylation in NIH3T3/v-Src; assay type: cell-based, mouse; conditions: for constitutive STAT3 phosphorylation: NIH3T3/v-Src, 40 or 50 μM, 12, 24, or 48 h
Experimental: as §4, §5

[10] = biological target: STAT3 (Mus musculus, UniProt P42227); experiment: Surface plasmon resonance analysis of binding to STAT3; design: His; made in house; host or cells: E. coli BL21(DE3); species or system murine; conditions: SPR, purified STAT3 immobilized on HisCap Sensor Chip
Experimental: Coding regions for the murine STAT3 protein and STAT3 SH2 domain were amplified by PCR and cloned into vectors pET-44 Ek/LIC (Novagen) and pET SUMO (Invitrogen), respectively. […] Clones were sequenced to verify the correct sequences and orientation. His-tagged recombinant proteins were expressed in BL21(DE3) cells, and purified on Ni-ion sepharose column.
Surface Plasmon resonance analysis was performed to characterize the binding of compounds to STAT3, as previously reported (16). SensiQ and its analysis software Qdat (ICX Technologies, Oklahoma City, Okla.) were used to analyze the interaction between agents and the STAT3 protein and to determine the binding affinity. Purified STAT3 was immobilized on a HisCap Sensor Chip by injecting 50 μg/ml of STAT3 onto the chip. Various concentrations of compounds in running buffer (1×PBS, 0.5% DMSO) were passed over the sensor chip to produce response signals. The association and dissociation rate constants were calculated using the Qdat software. The ratio of the association and dissociation rate constants was determined as the affinity (KD).

[11] = test system: TE-71; experiment: CyQuant cell viability and proliferation assay, TE-71; assay type: cell-based, murine; conditions: Mus musculus; 48 h, CyQuant viability
Experimental: as §1, §2, §3

[12] = test system: Panc-1; experiment: CyQuant cell viability and proliferation assay, Panc-1; assay type: cell-based; conditions: Homo sapiens, 48 h, CyQuant viability
Experimental: as §1, §2, §3

[13] = test system: pY705-STAT3; experiment: Immunoblotting of EGF-induced STAT3 phosphorylation in NIH3T3/hEGFR; assay type: cell-based, mouse; conditions: EGF-stimulated
Experimental: As indicated, the cells were treated or untreated with the indicated agents at 40 or 50 μM for the indicated times and probing for pY705STAT3, STAT3, pErk1/2, Erk1/2, pSrc, Src, pSTAT1, STAT1, or pTyr (clone 4G10). Positions of proteins in gel are labeled; control lanes (0) are whole-cell lysates from 0.05% DMSO-treated cells. Data are representative of 3-4 independent determinations. Further discussion on the figure is provided in the Experimental section below.
as §5
The effect of 8bj and 17b on ligand-stimulated STAT activation was also examined. […] These findings were consistent with other reports regarding other SH2 domain binding STAT3 inhibitors. (Turkson et al., 2001; Siddiquee et al., 2007; Siddiquee et al., 2007(b)).

Sequence of STAT3 (P42227 whole entry, the tested form may be a part): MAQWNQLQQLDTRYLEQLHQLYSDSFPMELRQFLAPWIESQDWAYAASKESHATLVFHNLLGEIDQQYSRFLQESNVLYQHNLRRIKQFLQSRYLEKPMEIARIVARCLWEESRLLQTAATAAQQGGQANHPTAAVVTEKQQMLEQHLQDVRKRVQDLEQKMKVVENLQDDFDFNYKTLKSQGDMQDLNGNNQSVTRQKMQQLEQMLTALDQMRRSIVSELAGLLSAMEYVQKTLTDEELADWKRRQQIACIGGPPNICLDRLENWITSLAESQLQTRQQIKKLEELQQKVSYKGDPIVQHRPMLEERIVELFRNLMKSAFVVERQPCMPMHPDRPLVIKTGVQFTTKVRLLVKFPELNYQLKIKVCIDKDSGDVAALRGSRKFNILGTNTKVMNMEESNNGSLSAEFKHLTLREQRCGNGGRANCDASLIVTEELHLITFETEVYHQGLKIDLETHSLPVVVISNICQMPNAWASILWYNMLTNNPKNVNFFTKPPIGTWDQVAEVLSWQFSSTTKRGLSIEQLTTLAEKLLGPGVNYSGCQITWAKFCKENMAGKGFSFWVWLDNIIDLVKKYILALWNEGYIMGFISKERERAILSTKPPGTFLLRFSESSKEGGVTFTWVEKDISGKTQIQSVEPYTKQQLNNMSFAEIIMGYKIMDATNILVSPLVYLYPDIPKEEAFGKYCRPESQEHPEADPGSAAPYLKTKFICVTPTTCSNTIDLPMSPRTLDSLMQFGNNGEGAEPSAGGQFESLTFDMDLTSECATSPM

IC50 [7] [µM]	Kd [10] [µM]	IC50 [12] [µM]	SMILES	IC50 [1] [µM]	malignant cell viability [2]	constitutive levels of Src (pSrc) [3]	IC50 [4] [µM]	constitutive levels of phospho-ErkMAPK (pErk1/2) [5]	IC50 [6] [µM]	constitutive STAT3 phosphorylation [8]	time after treatment at which STAT3 phosphorylation was inhibited ([8]; MDA-MB-231, time course) [min]	STAT3 phosphorylation after 6 h of treatment ([8]; MDA-MB-231, time course, 6 h)	STAT3 phosphorylation during prolonged treatment ([9]; NIH3T3/v-Src fibroblasts, time course)	constitutive STAT3 phosphorylation [9]	IC50 [11] [µM]	epidermal growth factor (EGF)-induced STAT3 phosphorylation [13]
145 ± 4.4	16.7	176 ± 5.3	O=C(O)Cn1cnc2c(NC3CCCC3)nc(NCc3ccc(C4CCCCC4)cc3)nc21 [8be, 2-(2-((4-cyclohexylbenzyl)amino)-6-(cyclopentylamino)-9H-purin-9-yl)acetic acid]	> 500	decrease in malignant cell viability	no effect	68.6 ± 1.8	no effect	100 ± 2.2	inhibition of constitutive STAT3 phosphorylation	15 to 30	restoration of STAT3 phosphorylation	temporarily restored	inhibition of constitutive STAT3 phosphorylation	> 500	–
66.1 ± 2.1	39	77.2 ± 1.9	CC(C)CNc1nc(NCc2ccc(C3CCCCC3)cc2)nc2c1ncn2CC(=O)O [8bj, 2-(2-((4-cyclohexylbenzyl)amino)-6-(isobutylamino)-9H-purin-9-yl)acetic acid]	> 500	decrease in malignant cell viability	no effect	65.3 ± 2.3	no effect	41.1 ± 4.6	inhibition of constitutive STAT3 phosphorylation	–	–	–	inhibition of constitutive STAT3 phosphorylation	> 500	selectively inhibited
